From paper PMC11181486, “Nonsymmetrically Substituted 1,1′-Biphenyl-Based Small Molecule Inhibitors of the PD-1/PD-L1 Interaction” (ACS Medicinal Chemistry Letters, 2024)
Read-outs that look alike come from different tables or passages of the source.

Tests used:
[1] = Solubility of the compounds (visual evaluation and A600 of dilutions); type: physicochemical; conditions: for A600 measurement (averaged from 2 reps): absorbance at 600 nm, 96-well plate, blank 0.0472, values in parentheses unreliable (precipitate); for solubility: kinetic from dmso stock, dilutions from DMSO stock, visually evaluated
Method: compound was 500 nM). The dilutions were then visually evaluated according to the following […]
+++ clear solution, no precipitation
++ slight turbidity, no precipitate
+ visible turbidity, no precipitate.
+/- strong turbidity, no precipitation.
- visible precipitation and/or visible precipitation in the original 100% DMSO solution.
The dilutions prepared in this way were applied to a 96-well plate and the absorbance measured […]
at a wavelength of 600 nm.
Table S2, Blank of 10 Measurements.
Table S2. Solubility of the compounds

[2] = biological target: T1, PD-1/PD-L1 (Homo sapiens, UniProt Q9NZQ7); assay: cell-based; design: host or cells: PD-L1+ aAPC/CHO-K1 cells; PD-1 effector Jurkat cells
Method: The PD-1/PD-L1 immune checkpoint bioassay (PD-1/PD-L1 Bioassay, Promega) was conducted according to the manufacturer’s protocol. PD-L1+ aAPC/CHO-K1 cells were seeded at a density of […] in 100 μL of medium [Ham’s F12, 10% fetal bovine serum (FBS)] in 96-well white flat-bottomed plates and incubated overnight at 37 °C in the presence of 5% CO2. The next day, the medium was removed, and serial dilutions of small molecule inhibitors were added at 40 μL per well in assay buffer (RPMI1640 + 1% FBS + 1% DMSO). […] The cells were cocultured for 6 h at 37 °C with 5% CO2 followed by a 5 min equilibration at room temperature. Bio-Glo Reagent (Promega) was prepared and added at 80 μL per well. After a 15 min incubation at room temperature, luminescence was measured using a Tecan Spark microplate reader. Data are presented as fold induction of luminescence relative to DMSO-treated cells. EC50 values were calculated using the log(inhibitor) vs response variable slope (four-parameter) analysis model with GraphPad Prism software.
Target sequence in this assay (Q9NZQ7 19-290): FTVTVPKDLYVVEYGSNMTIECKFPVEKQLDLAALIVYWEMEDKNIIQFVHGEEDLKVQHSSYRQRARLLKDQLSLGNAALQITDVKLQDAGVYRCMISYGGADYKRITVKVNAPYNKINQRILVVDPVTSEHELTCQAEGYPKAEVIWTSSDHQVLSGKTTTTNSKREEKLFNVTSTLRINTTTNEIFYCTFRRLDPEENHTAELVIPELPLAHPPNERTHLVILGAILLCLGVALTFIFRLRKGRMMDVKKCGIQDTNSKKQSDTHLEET

[3] = biological target: T2, hPD-L1 (human PD-L1) (Homo sapiens, UniProt Q9NZQ7); assay: 1H NMR titration with hPD-L1; type: binding; conditions: molar ratio protein to compound 1:1
T2 construct: The human PD-L1 IgV domain (residues 18–134, C-terminal His-tag) was expressed and purified; His-tag (C); made in house
Method: Representative molecules were evaluated for their interaction with PD-L1 by means of an ^1H NMR titration experiment.

[4] = biological target: T1, PD-1/PD-L1; assay: Homogeneous time-resolved fluorescence (HTRF) PD-1/PD-L1 assay (CisBio kit); type: binding; design: Tag1 or Tag2 (kit's undisclosed tag); purchased CisBio; conditions: for remaining activity at 0.005 µM: 2 h, read-out: HTRF Fraction of the undissociated protein complex
Method: The certified CisBio kit was used to conduct the HTRF assay, adhering to the manufacturer’s guidelines. The assay setup comprised hPD-1, hPD-L1, anti-Tag1 tagged with Europium cryptate (HTRF donor), and anti-Tag2 tagged with XL665 (HTRF acceptor). The experiments utilized final concentrations of 5 nM hPD-L1 and 50 nM hPD-1 in a 20 μL total volume performed in triplicate. Per the CisBio instructions, all components were combined, the plate was incubated at ambient temperature for 2 h, and the TR-FRET (time-resolved fluorescence energy transfer) was carried out using the Tecan Spark 20M. The negatives in the acquired data were subtracted for background, the positives were standardized, and then the data were averaged.
of 50 mM of the compound. Samples were then diluted to 50 nM and used for measurements.
Target sequence in this assay (Q9NZQ7 19-238 limits assumed): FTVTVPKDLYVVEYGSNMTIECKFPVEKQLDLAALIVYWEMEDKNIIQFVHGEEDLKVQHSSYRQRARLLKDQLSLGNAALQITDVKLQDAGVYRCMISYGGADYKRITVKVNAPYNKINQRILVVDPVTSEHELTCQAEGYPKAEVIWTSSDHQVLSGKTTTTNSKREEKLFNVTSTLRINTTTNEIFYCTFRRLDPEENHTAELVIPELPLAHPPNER

[5] = biological target: T1, PD-1/PD-L1; design: host or cells: PD-L1+ aAPC/CHO-K1 cells; PD-1 effector Jurkat cells; conditions: Figure S2B; ref Koblish et al.; cited from earlier work
Target sequence in this assay (Q9NZQ7 19-290): as the sequence (Q9NZQ7 19-290) above

[6] = biological target: T3, hPD-1/hPD-L1 complex (Homo sapiens, UniProt Q9NZQ7); assay: PD-1/PD-L1 NMR-based antagonist-induced dissociation assay (AIDA); type: binding; conditions: complex of hPD-1/hPD-L1 with compound, 1:1 molar ratio protein to compound
T3 construct: The human PD-L1 IgV domain (residues 18–134, C-terminal His-tag) was expressed and purified; His-tag (C); made in house
Method: In addition, we performed a PD-1/PD-L1 NMR-based antagonist-induced dissociation assay (AIDA).[42],[43] The AIDA assay was performed by adding a slight molar excess of PD-L1 to PD-1, which causes ^1H NMR signals to broaden corresponding to complex formation (Figure 2). […] However, in Figure 2 (purple), these are obscured by the sharper NMR signals of monomeric PD-1 released from the PD-L1/PD-1 complex.
Figure 2 NMR-based AIDA assay showing that a compound displaces PD-1 from PD-L1.

[7] = PD-L1+ aAPC/CHO-K1 cells cocultured 6 h with PD-1 effector Jurkat cells, read-out: PD-1/PD-L1 blockade, NFAT reporter bioassay EC50
[8] = at the 5 nM concentration of the inhibitor, 5 nM hPD-L1, 50 nM hPD-1

T2 sequence (Q9NZQ7 18-134): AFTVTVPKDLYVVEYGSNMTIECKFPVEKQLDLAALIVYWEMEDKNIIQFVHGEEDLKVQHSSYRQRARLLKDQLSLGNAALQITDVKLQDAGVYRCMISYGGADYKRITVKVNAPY
T3 sequence (Q9NZQ7 18-134, one chain of several): as the sequence (Q9NZQ7 18-134) above

SMILES	A600 measurement (averaged from 2 reps) [1]	solubility [1] [µM]	EC50 [2, 7] [nM]	further results
Cc1c(NC(=O)c2ccc(CNCCCO)cn2)cccc1-c1cccc(NC(=O)c2ccc(CN(C)C(CO)CO)cn2)c1C [Compound 5]	0.04735	< 500	110	EC50 [2]: ~200 nM
Cc1c(NC(=O)c2ccc(CNCCCO)cn2)cccc1-c1cccc(NC(=O)c2ccc(CN(C)CCO)cn2)c1C [Compound 7]	0.3466	< 500		
Cc1c(NC(=O)c2ccc(CNCCO)cn2)cccc1-c1cccc(NC(=O)c2ccc(CNCCCNS(C)(=O)=O)cn2)c1C [Compound 17]	0.2217	< 500	65.8	effect on hPD-L1 1H NMR lines (broadening) [3]: oligomerization
Cc1c(NC(=O)c2ccc(CNCCO)cn2)cccc1-c1cccc(NC(=O)c2ccc(CNCCO)cn2)c1C [Cmpd A, reference compound]			14.7	remaining activity at 0.005 µM [4, 8]: 18%
Cc1c(NC(=O)c2ccc(CN[C@@H](C)CO)cn2)cccc1-c1cccc(NC(=O)c2ccc(CN(C)CCO)cn2)c1C.Cl.Cl.Cl [Compound 2a]	0.1517	< 500	25	
Cc1c(NC(=O)c2ccc(CNCCCO)cn2)cccc1-c1cccc(NC(=O)c2ccc(CN[C@@H]3CCC[C@H]3O)cn2)c1C [Compound 12]	0.0476	> 500		
Cc1c(NC(=O)c2ccc(CN(C)CCO)cn2)cccc1-c1cccc(NC(=O)c2ccc(CN(CCO)CCO)cn2)c1C [Compound 8]	0.459	< 500		
Cc1c(NC(=O)c2ccc(CNCCCO)cn2)cccc1-c1cccc(NC(=O)c2ccc(CN3CCC(O)CC3)cn2)c1C [Compound 9]	0.09395	< 500	188	EC50 [2]: > 180 nM; remaining activity at 0.005 µM [4, 8]: 26%
Cc1c(NC(=O)c2ccc(CNCCO)cn2)cccc1-c1cccc(NC(=O)c2ccc(CNCCNS(C)(=O)=O)cn2)c1C [Compound 16]	0.0494	> 500		
Cc1c(NC(=O)c2ccc(CN[C@@H](C)CO)cn2)cccc1-c1cccc(NC(=O)c2ccc(CN[C@@H]3CCC[C@H]3O)cn2)c1C [Compound 13]	0.1827	< 500		
Cc1c(Nc2nccc3cc(CN4CC[C@@H](O)C4)cnc23)cccc1-c1cccc(-c2nc3cc(CN4CC[C@@H](C(=O)O)C4)cc(C#N)c3o2)c1C [INCBO86550]				EC50 [5]: 21.4 nM
Cc1c(NC(=O)c2ccc(CN[C@@H](C)CO)cn2)cccc1-c1cccc(NC(=O)c2ccc(CN3CCC(O)CC3)cn2)c1C [Compound 10]	0.1308	< 500	287	EC50 [2]: > 180 nM; remaining activity at 0.005 µM [4, 8]: 30%
Cc1c(NC(=O)c2ccc(CN[C@@H](C)CO)cn2)cccc1-c1cccc(NC(=O)c2ccc(CN(C)CCO)cn2)c1C [Compound 2]	0.4023	< 500	21.8	IC50 [4]: 1.46 nM; remaining activity at 0.005 µM [4, 8]: 42%
Cc1c(NC(=O)c2ccc(CN[C@@H]3CCC[C@H]3O)cn2)cccc1-c1cccc(NC(=O)c2ccc(CN(C)CCO)cn2)c1C [Compound 1]	0.5138	< 500		
COC(=O)[C@H](C)NCc1ccc(C(=O)Nc2cccc(-c3cccc(NC(=O)c4ccc(CN5CCCC5)cn4)c3C)c2C)nc1 [Compound 6]	0.0627	< 500		
Cc1c(NC(=O)c2ccc(CNCCCO)cn2)cccc1-c1cccc(NC(=O)c2ccc(CN[C@@H](C)CO)cn2)c1C [Compound 14]	0.05315	> 500		effect on hPD-L1 1H NMR lines (broadening) [3]: oligomerization
Cc1c(COc2cc(OCc3cccc(C#N)c3)c(CN3C[C@H](O)C[C@@H]3C(=O)O)cc2Cl)cccc1-c1ccc2c(c1)OCCO2 [BMS-1166, reference compound]				HTRF Fraction of the undissociated protein complex [4, 8]: 0.59
Cc1c(NC(=O)c2ccc(CNCCO)cn2)cccc1-c1cccc(NC(=O)c2ccc(CNCCCNS(C)(=O)=O)cn2)c1C.Cl.Cl.Cl.Cl [Compound 17a]	0.2848	< 500	76.3	AIDA rescue percentage of the PD-1 signal [6]: 100%; effect on hPD-L1 1H NMR lines (broadening) [3]: oligomerization; IC50 [4]: 3.06 nM; dissociation of the PD-1/PD L1 complex (HTRF) ([4]; 5 nM inhibitor concentration): 83%; undissociated complex in the HTRF assay ([4]; 5 nM inhibitor concentration): 17%
Cc1c(NC(=O)c2ccc(CN[C@@H]3CCC[C@H]3O)cn2)cccc1-c1cccc(NC(=O)c2ccc(CN3CCC(O)CC3)cn2)c1C [Compound 11]	0.1117	< 500	553	EC50 [2]: > 180 nM; remaining activity at 0.005 µM [4, 8]: 43%
Cc1c(NC(=O)c2ccc(CN[C@@H]3CCC[C@H]3O)cn2)cccc1-c1cccc(NC(=O)c2ccc(CN(CCO)CCO)cn2)c1C [Compound 4]	0.2271	< 500		
Cc1c(NC(=O)c2ccc(CNCCCO)cn2)cccc1-c1cccc(NC(=O)c2ccc(CN(CCO)CCO)cn2)c1C [Compound 3]	0.2786	< 500	251	EC50 [2]: ~200 nM
